From patent publication US20090048258A1, “Amide Compound” (priority 2005, published 2009)
Like-named read-outs stand apart in the source and are kept apart here.

Target: T1, Human DGAT1 (Homo sapiens, UniProt O75907)
T1 construct: my translation of the primer: M-G-DYKDDDD-GDRGSSRRR) (N); made in house; host or cells: Sf9 insect cells (recombinant baculovirus BAC-DGAT1, pFASTBAC1); microsome fraction
T1 sequence (O75907 1-488): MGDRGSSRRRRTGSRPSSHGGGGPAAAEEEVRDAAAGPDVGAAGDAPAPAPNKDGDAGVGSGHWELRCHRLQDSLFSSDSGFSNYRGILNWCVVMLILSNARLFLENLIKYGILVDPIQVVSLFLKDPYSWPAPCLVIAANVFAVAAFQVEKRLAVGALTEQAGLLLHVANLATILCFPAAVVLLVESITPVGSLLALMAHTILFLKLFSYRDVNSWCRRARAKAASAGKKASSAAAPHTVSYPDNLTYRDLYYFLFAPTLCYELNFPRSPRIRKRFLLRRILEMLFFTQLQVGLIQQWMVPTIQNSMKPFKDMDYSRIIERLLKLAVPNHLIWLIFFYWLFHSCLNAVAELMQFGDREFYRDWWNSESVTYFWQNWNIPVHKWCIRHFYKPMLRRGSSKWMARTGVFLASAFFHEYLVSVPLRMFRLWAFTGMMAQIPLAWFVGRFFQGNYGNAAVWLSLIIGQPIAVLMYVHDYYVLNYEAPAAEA
Assay: DGAT inhibitory activity: [14C]-triglyceride synthesis by DGAT1 high expression Sf9 microsome
Format: biochemical
Details: 25 μM [14C]-Oleoyl-CoA, 32° C., 15 min, read-out: DGAT inhibitory activity (according to IC50)
Protocol: The primer base sequence is shown below.
The PCR reaction was conducted using a KOD-plus kit (TOYOBO). The obtained PCR product was electrophoresed on agarose gel (1%), the DNA fragment amplified by PCR was recovered from the gel, and then digested with restriction enzymes EcoRI and SpeI. […] Furthermore, using BAC-TO-BAC Baculovirus Expression System (Invitrogen), recombinant baculovirus BAC-DGAT1 was prepared.
SF9 cells were sown at 1×10^6 cells/ml on Sf-900II SEM medium (1 L, Invitrogen) containing 10% fetal calf serum (Trace), 50 mg/L gentamicin (Invitrogen) and 0.1% Pluronic F-68 (Invitrogen), and shaking culture was performed using a 2 L volume Erlenmeyer at 27° C., 100 rpm. After culturing for 24 hr, recombinant baculovirus BAC-DGAT1 (6.7 mL) was added, and the mixture was further cultured for 3 days. The culture medium was centrifuged at 2,000 rpm for 5 min to give virus-infected cells. The infected cells were washed with a phosphate buffered saline (Invitrogen), centrifuged under the same conditions, and the cells were preserved at −80° C. The cryopreserved cells were thawed in ice, suspended in buffer A (50 mM Tris buffer (30 mL, pH 7.4) containing 20% glycerol, 0.15 M NaCl) supplemented with Complete Protease Inhibitor (Boehringer), and ruptured 3 times with a Polytron homogenizer (Kinematica) at 20,000 rpm for 30 sec. The Sf9 microsome fractions were obtained by a conventional method and cryopreserved at −80° C. as a DGAT1 high expression Sf9 microsome.
As a DGAT1 reaction buffer, a solution having a composition of 100 mM Tris-HCl (pH 7.5), 250 mM sucrose, 150 mM MgCl2, 0.01% bovine serum albumin (BSA) was used. […] A mixture of 300 μL of chloroform:methanol (=1:2) was added to the reaction mixture to quench the reaction. The reaction mixture was sufficiently mixed and saline (200 μL) was added to partition the mixture between a chloroform layer (lower layer) and an aqueous layer (upper layer). The chloroform layer (50 μL) was spotted on a thin layer chromatography silica gel plate (TLC plate, Merck) and developed with a solvent (n-hexane:diethyl ether:ethyl acetate:acetic acid=74:15:15:1). The developed TLC plate was dried, contacted with a BAS imaging plate (manufactured by FUJIFILM) and measured with BAS2500 (manufactured by FUJIFILM) 16 hr later to numerically show the amount of [^14C]-triglyceride (TG amount) produced during the reaction. The inhibitory rate was calculated by the following formula:
Inhibitory rate (%)=(1−(TG amount in the case with addition of test compound−blank TG amount)/(control TG amount−blank TG amount))×100
The count of the triglyceride produced in the solution reacted without addition of the test compound was used as a “control TG amount”, and the count of the triglyceride produced in the solution reacted without addition of the test compound and DGAT1 high expression Sf9 microsome was used as a “blank TG amount”.

[1] = Table 2, 25 μM dioleoylglycerol
[2] = Table 1, 25 μM dioleoylglycerol

| IC50 [1] [nM] | IC50 [2] [nM] | Structure (SMILES) |
| --- | --- | --- |
| 50 to 500 | – | N#Cc1cccc(-c2cc(NC(=O)CCC(=O)c3ccc4c(c3)CCO4)nc(-c3ccccc3)c2)c1 [Example 163, N-[4-(3-cyanophenyl)-6-phenylpyridin-2-yl]-4-(2,3-dihydro-1-benzofuran-5-yl)-4-oxobutanamide] |
| 500 to 10000 | – | CCCCCC/C=C/c1cc(NC(=O)CCC(=O)c2ccc3c(c2)CCO3)nc(-c2ccccc2)c1 [Example 184, 4-(2,3-dihydro-1-benzofuran-5-yl)-N-{4-[(1E)-octa-1-en-1-yl]-6-phenylpyridin-2-yl}-4-oxobutanamide] |
| ≤ 10 | – | N#Cc1ccccc1-c1cc(NC(=O)CCC(=O)c2ccc3c(c2)CCO3)nc(-c2ccccc2)c1 [Example 176, N-[4-(2-cyanophenyl)-6-phenylpyridin-2-yl]-4-(2,3-dihydro-1-benzofuran-5-yl)-4-oxobutanamide] |
| – | 50 to 500 | CCOc1ccc(C(=O)CCC(=O)Nc2cc(-c3ccccc3)c(CC3CCCCC3)s2)cc1OCC [Example 46, N-(5-(cyclohexylmethyl)-4-phenyl-2-thienyl)-4-(3,4-diethoxyphenyl)-4-oxobutanamide] |
| 500 to 10000 | – | CCOc1ccc(C(=O)CCC(=O)Nc2sc(-c3ccccc3)nc2-c2ccccc2)cc1 [Example 66, 4-(4-ethoxyphenyl)-N-(2,4-diphenyl-1,3-thiazol-5-yl)-4-oxobutanamide] |
| 10 to 50 | – | CCOC(=O)/C=C/c1ccc2nc(NC(=O)CCC(=O)c3ccc(OCC)c(OCC)c3)cc(-c3ccc(C)cc3)c2c1 [Example 77, ethyl(2E)-3-[2-{[4-(3,4-diethoxyphenyl)-4-oxobutanoyl]amino}-4-(4-methylphenyl)quinoline-6-yl]acrylate] |
| 50 to 500 | – | CC(=O)c1cccc(-c2cc(NC(=O)CCC(=O)c3ccc4c(c3)CCO4)nc(-c3ccccc3)c2)c1 [Example 171, N-[4-(3-acetylphenyl)-6-phenylpyridin-2-yl]-4-(2,3-dihydro-1-benzofuran-5-yl)-4-oxobutanamide] |
| 500 to 10000 | – | CCOc1ccc(C(=O)CCC(=O)Nc2cc(-c3cccc(C(=O)OC)c3)cc(-c3ccccc3)n2)cc1OCC [Example 139, methyl 3-(2-{[4-(3,4-diethoxyphenyl)-4-oxobutanoyl]amino}-6-phenylpyridin-4-yl)benzoate] |
| 500 to 10000 | – | CCOc1ccc(C(=O)CCC(=O)Nc2cc(-c3ccc(/C=C/C(=O)OC)cc3)cc(-c3ccccc3)n2)cc1OCC [Example 127, methyl (2E)-3-[4-(2-{[4-(3,4-diethoxyphenyl)-4-oxobutanoyl]amino}-6-phenylpyridin-4-yl)phenyl]acrylate] |
| 50 to 500 | – | CCOc1ccc(C(=O)CCC(=O)Nc2cc(-c3ccc(N(C)C)cc3)cc(-c3ccccc3)n2)cc1OCC [Example 131, 4-(3,4-diethoxyphenyl)-N-{4-[4-(dimethylamino)phenyl]-6-phenylpyridin-2-yl}-4-oxobutanamide] |
| 50 to 500 | – | CCOc1ccc(C(=O)CCC(=O)Nc2cc(-c3cnn(C)c3)cc(-c3ccccc3)n2)cc1OCC [Example 119, 4-(3,4-diethoxyphenyl)-N-[4-(1-methyl-1H-pyrazol-4-yl)-6-phenylpyridin-2-yl]-4-oxobutanamide] |
| 50 to 500 | – | O=C(CCC(=O)c1ccc2c(c1)OCCO2)Nc1nc(-c2ccccc2)c(Cc2ccccc2)s1 [Example 67, N-(5-benzyl-4-phenyl-1,3-thiazol-2-yl)-4-(2,3-dihydro-1,4-benzodioxin-6-yl)-4-oxobutanamide] |
| 50 to 500 | – | CCOc1ccc(C(=O)CCC(=O)Nc2cc(-c3ccc4c(c3)OCO4)cc(-c3ccccc3)n2)cc1OCC [Example 120, N-[4-(1,3-benzodioxol-5-yl)-6-phenylpyridin-2-yl]-4-(3,4-diethoxyphenyl)-4-oxobutanamide] |
| – | ≤ 10 | CCOc1ccc(C(=O)CCC(=O)Nc2nc(-c3ccccc3)c(Cc3ccccc3)s2)cc1 [Example 1, N-(5-benzyl-4-phenyl-1,3-thiazol-2-yl)-4-(4-ethoxyphenyl)-4-oxobutanamide] |
| 500 to 10000 | – | CCOc1ccc(C(=O)CCC(=O)Nc2cc(-c3ccc(C(=O)O)cc3)cc(-c3ccccc3)n2)cc1OCC [Example 113, 4-(2-{[4-(3,4-diethoxyphenyl)-4-oxobutanoyl]amino}-6-phenylpyridin-4-yl)benzoic acid] |
| 50 to 500 | – | CCOc1ccc(C(=O)CCC(=O)Nc2cc(-c3cccc(C#N)c3)cc(-c3ccccc3)n2)cc1OCC [Example 132, N-[4-(3-cyanophenyl)-6-phenylpyridin-2-yl]-4-(3,4-diethoxyphenyl)-4-oxobutanamide] |
| 50 to 500 | – | O=C(CCC(=O)c1ccc2c(c1)CCCC2)Nc1cc(-c2ccccc2)c(Cc2ccccc2)s1 [Example 99, N-(5-benzyl-4-phenyl-2-thienyl)-4-oxo-4-(5,6,7,8-tetrahydronaphthalen-2-yl)butanamide] |
| ≤ 10 | – | CCOc1ccc(C(=O)CCC(=O)Nc2cc(-c3ccccc3O)cc(-c3ccccc3)n2)cc1OCC [Example 145, 4-(3,4-diethoxyphenyl)-N-[4-(2-hydroxyphenyl)-6-phenylpyridin-2-yl]-4-oxobutanamide] |
| – | 10 to 50 | CCOc1cc(C)c(C(=O)CCC(=O)Nc2cc(-c3ccccc3)c(Cc3ccccc3)s2)cc1OCC [Example 50, N-(5-benzyl-4-phenyl-2-thienyl) -4-(4,5-diethoxy-2-methylphenyl)-4-oxobutanamide] |
| – | ≤ 10 | CCOc1ccc(C(=O)CCC(=O)Nc2nc(-c3ccccc3)c(Cc3ccccc3)s2)cc1OCC [Example 3, N-(5-benzyl-4-phenyl-1,3-thiazol-2-yl)-4-(3,4-diethoxyphenyl)-4-oxobutanamide] |
| – | 50 to 500 | CCOc1ccc(C(=O)CCC(=O)Nc2cc(-c3ccccc3)c(C(=O)OC(C)(C)C)s2)cc1OCC [Example 56, tert-butyl 5-{[4-(3,4-diethoxyphenyl)-4-oxobutanoyl]amino}-3-phenylthiophene-2-carboxylate] |
| – | 50 to 500 | CCOc1ccc(C(=O)CCC(=O)Nc2cc(-c3ccccc3)cc(-c3ccccc3)c2)cc1OCC [Example 8, 4-(3,4-diethoxyphenyl)-4-oxo-N-(1,1′:3′,1″-terphenyl-5′-yl)butanamide] |
| 500 to 10000 | – | CCOc1ccc(C(=O)CCC(=O)Nc2cc(-c3ccc(C4CCCCC4)cc3)cc(-c3ccccc3)n2)cc1OCC [Example 110, N-[4-(4-cyclohexylphenyl)-6-phenylpyridin-2-yl]-4-(3,4-diethoxyphenyl)-4-oxobutanamide] |
| 500 to 10000 | – | COC(=O)c1cccc(-c2cc(NC(=O)CCC(=O)c3ccc4c(c3)CCO4)nc(-c3ccccc3)c2)c1 [Example 170, methyl 3-(2-{[4-(2,3-dihydro-1-benzofuran-5-yl)-4-oxobutanoyl]amino}-6-phenylpyridin-4-yl)benzoate] |
| – | 50 to 500 | COc1ccc(C(=O)CCC(=O)Nc2cc(-c3ccccc3)c(Cc3ccccc3)s2)cc1CCCO [Example 54, N-(5-benzyl-4-phenyl-2-thienyl)-4-[3-(3-hydroxypropyl)-4-methoxyphenyl]-4-oxobutanamide] |
| 500 to 10000 | – | CCOc1ccc(C(=O)CCC(=O)Nc2cn(Cc3ccccc3)nc2-c2ccccc2)cc1 [Example 109, N-(1-benzyl-3-phenyl-1H-pyrazol-4-yl)-4-(4-ethoxyphenyl)-4-oxobutanamide] |
